Laboratory results: patent US8546611B2 (priority 2008, dated 2013)
Like-named read-outs stand apart in the source and are kept apart here.

Key:
[1] = system: erythroid cells isolated from the bone marrow of laboratory mice males; conditions: feed with succinic acid 20 mg/kg body wt., not irradiated
Experimental: The test for genotoxicity was performed on young laboratory mice males (18-20 g; 6 animals in each group). […] The control animals were given water.

[2] = system: Wistar rat males; conditions: for Eosinophils, 6 h after / Lymphocytes, 6 h after / Number of leukocytes in 1 μl of blood, 6 h after / Segmentated cells, 6 h after: 6 h after immobilization; for Eosinophils, 6 h after / Lymphocytes, 6 h after / Number of leukocytes in 1 μl of blood, 6 h after / Segmentated cells, 6 h after / Eosinophils, before / Lymphocytes, before / Number of leukocytes in 1 μl of blood, before / Segmentated cells, before: 1.5 ml of 1% succinic acid perorally 10 min prior; for Eosinophils, before / Lymphocytes, before / Number of leukocytes in 1 μl of blood, before / Segmentated cells, before: at the moment of immobilization
Experimental: Examples, illustrating the method invented, are presented below. […] SA is tested on rats endured an immobilization stress; the parameter tested is lymphocytic composition of blood, which is determined before and after stress in a blood smear taken from the caudal vein. […] A detailed description of the testing technique is given in Example 13.
The animals were fixed while lying flat on their back, with their legs secured. […] Blood was taken from the caudal vein: 10 μl for counting blood corpuscles and 20 μl for preparing a smear with its subsequent staining by Romanovsky-Giemsa).
First group: 10 min prior immobilization, the animals were injected (perorally, with the help of a stomach pump) with 1.5 ml of 1% starch solution. […] Blood was taken from the caudal vein at the moment of immobilization and 6 hours later, and stained blood smears were prepared to calculate the leukogram.

[3] = system: patients with cardiac insufficiency; conditions: for patients of functional class I, day 30 / patients of functional class II, day 30 / patients of functional class III, day 30 / patients of functional class IV, day 30 / patients of functional class I, day 60 / patients of functional class II, day 60 / patients of functional class III, day 60 / patients of functional class IV, day 60 / patients of functional class I, day 90 / patients of functional class II, day 90 / patients of functional class III, day 90 / patients of functional class IV, day 90: 100 mg twice per day with standard therapy; for patients of functional class I, day 30 / patients of functional class II, day 30 / patients of functional class III, day 30 / patients of functional class IV, day 30: after 30 days; for patients of functional class I, day 60 / patients of functional class II, day 60 / patients of functional class III, day 60 / patients of functional class IV, day 60: after 60 days; for patients of functional class I, day 90 / patients of functional class II, day 90 / patients of functional class III, day 90 / patients of functional class IV, day 90: after 90 days; for patients of functional class I, day 0 / patients of functional class II, day 0 / patients of functional class III, day 0 / patients of functional class IV, day 0: with standard therapy, before treatment
Experimental: The test for cardiotonic activity of product samples was performed by measuring the dynamics of alteration of the functional class of cardiac failure. The functional class can be determined quite accurately by analyzing the everyday life activities according to a specific activity scale. The authors of this technique suppose that the criteria developed by NYHA (New York Heart Association) cannot provide accurate determination of functional class, since widely used terms, such as “everyday physical activity”, “sub-everyday activity” are not specific. On the basis of multiple tests, in which patients exercised on a treadmill, the authors calculated a scale of metabolic expenses for each kind of life activity (see Goldman L., Hashimoto B., Cook F. et al., Comparative reproducibility and validity of systems for assessing cardiovascular functional class: advantages of a new specific activity scale (1981) Circulation 64 (6):1227-34). This inquiry is designed to be used by medical personnel, interviewing a patient. After calculating the sum of possible energy expenses, the functional class of the patient is determined according to the summary criteria of the specific activity scale (Table 6).
In the tests, the patient groups were formed so that the people of the same functional class were equally distributed among different groups. Severe patients (of IV functional class; those having oncological diseases or suffered myocardial infarction/stroke to the brain 60 days or less before) were not admitted to the tests. The distribution of patients among groups was governed by a random number generator. The tests were carried out by the following protocol. Each patient took 100 mg of the preparation twice per day (in the morning and after lunch) during 3 months—against the background of a standard therapy administered by a physician. […] All the samples and placebo were encoded before sending into the clinic, so none of those involved into the tests (patients, physicians, medical personnel and the manager of tests) was aware of the nature of samples.
The functional class of patients was determined several times: at the beginning of tests (before the formation of test groups) and after 30, 60 and 90 days of treatment with the test samples. The estimation was performed on the basis of the activity scale (Table 7).

[4] = system: white rat females; conditions: in vivo; for Total died: 14 days
[5] = system: erythroid cells isolated from the bone marrow of gamma-irradiated laboratory mice males; experiment: Radioprotective properties (micronucleus test after gamma irradiation); conditions: for Number of micronuclei per 2000 cells (radioprotective properties): mice irradiated with gamma rays 1.3 Gy, then fed 48 h succinic acid 20 mg/kg body wt., critical value 16±2

SMILES | Number of micronuclei per 2000 cells (genotoxicity) ([1]; norm 5.0±1.0) | patients of functional class I, day 30 [3] | patients of functional class II, day 30 [3] | patients of functional class III, day 30 [3] | patients of functional class IV, day 30 [3] | patients of functional class I, day 60 [3] | patients of functional class II, day 60 [3] | patients of functional class III, day 60 [3] | patients of functional class IV, day 60 [3] | patients of functional class I, day 90 [3] | patients of functional class II, day 90 [3] | patients of functional class III, day 90 [3] | patients of functional class IV, day 90 [3] | patients of functional class I, day 0 ([3]; 100 mg twice per day, 3 months) | patients of functional class II, day 0 ([3]; 100 mg twice per day, 3 months) | patients of functional class III, day 0 ([3]; 100 mg twice per day, 3 months) | patients of functional class IV, day 0 ([3]; 100 mg twice per day, 3 months) | died, 14 day ([4]; female, 5000 mg/kg) | Total died ([4]; female, 5000 mg/kg) | Number of micronuclei per 2000 cells (radioprotective properties) [5] | further results
O=C(O)CCC(=O)O [Example 5, succinic acid] | 5.0 ± 1.0 | 8 | 7 | 5 | 0 | 9 | 7 | 4 | 0 | 14 | 5 | 1 | 0 | 8 | 7 | 5 | 0 | 1 | 3 | 12.0 ± 1.2 | Eosinophils, 6 h after ([2]; listed as Ex. 5): 1.5 ± 8%; Lymphocytes, 6 h after ([2]; listed as Ex. 5): 75 ± 4%; Number of leukocytes in 1 μl of blood, 6 h after ([2]; listed as Ex. 5): 7200; Segmentated cells, 6 h after ([2]; listed as Ex. 5): 24 ± 3%; Eosinophils, before ([2]; listed as Ex. 5): 2 ± 6%; Lymphocytes, before ([2]; listed as Ex. 5): 76 ± 5%; Number of leukocytes in 1 μl of blood, before ([2]; listed as Ex. 5): 6000; Segmentated cells, before ([2]; listed as Ex. 5): 22 ± 4%; died, 13 day ([4]; female, 5000 mg/kg): 2
O=C(O)CCC(=O)O [Example 6, succinic acid] | 4.5 ± 1.0 | 10 | 6 | 4 | 0 | 11 | 6 | 3 | 0 | 14 | 5 | 1 | 0 | 8 | 7 | 5 | 0 | 2 | 3 | 12.5 ± 1.0 | Eosinophils, 6 h after ([2]; listed as Ex. 6): 1.0 ± 2%; Lymphocytes, 6 h after ([2]; listed as Ex. 6): 74 ± 6%; Number of leukocytes in 1 μl of blood, 6 h after ([2]; listed as Ex. 6): 7000; Segmentated cells, 6 h after ([2]; listed as Ex. 6): 25 ± 3%; Eosinophils, before ([2]; listed as Ex. 6): 2 ± 2%; Lymphocytes, before ([2]; listed as Ex. 6): 77 ± 5%; Number of leukocytes in 1 μl of blood, before ([2]; listed as Ex. 6): 5800; Segmentated cells, before ([2]; listed as Ex. 6): 21 ± 3%; died, 11 day ([4]; female, 5000 mg/kg, 11 day): 1
O=C(O)CCC(=O)O [Example 1, succinic acid, reference compound] | 5.5 ± 0.8 | 8 | 7 | 5 | 0 | 9 | 6 | 5 | 0 | 9 | 7 | 4 | 0 | 8 | 7 | 5 | 0 |  | 0 | 25.5 ± 1.0 | Eosinophils, 6 h after ([2]; listed as Ex. 1): 0%; Lymphocytes, 6 h after ([2]; listed as Ex. 1): 69 ± 5%; Number of leukocytes in 1 μl of blood, 6 h after ([2]; listed as Ex. 1): 7900; Segmentated cells, 6 h after ([2]; listed as Ex. 1): 29 ± 3%; Eosinophils, before ([2]; listed as Ex. 1): 2 ± 4%; Lymphocytes, before ([2]; listed as Ex. 1): 78 ± 4%; Number of leukocytes in 1 μl of blood, before ([2]; listed as Ex. 1): 5900; Segmentated cells, before ([2]; listed as Ex. 1): 21 ± 2%; animals died, extra test with doubled dose ([4]; 10000 mg/kg): Not a single animal died
O=C(O)CCC(=O)O [Example 8, succinic acid] | 5.0 ± 0.8 | 10 | 6 | 4 | 0 | 11 | 6 | 3 | 0 | 14 | 5 | 1 | 0 | 8 | 7 | 5 | 0 | 1 | 3 | 12.0 ± 1.5 | Eosinophils, 6 h after ([2]; listed as Ex. 8): 1.5 ± 3%; Lymphocytes, 6 h after ([2]; listed as Ex. 8): 75 ± 4%; Number of leukocytes in 1 μl of blood, 6 h after ([2]; listed as Ex. 8): 7000; Segmentated cells, 6 h after ([2]; listed as Ex. 8): 24 ± 2%; Eosinophils, before ([2]; listed as Ex. 8): 2 ± 6%; Lymphocytes, before ([2]; listed as Ex. 8): 77 ± 5%; Number of leukocytes in 1 μl of blood, before ([2]; listed as Ex. 8): 5900; Segmentated cells, before ([2]; listed as Ex. 8): 21 ± 4%; died, 12 day ([4]; female, 5000 mg/kg, 12 day): 1; died, 13 day ([4]; female, 5000 mg/kg): 1
O=C(O)CCC(=O)O [“Natural” SA, succinic acid, reference compound] |  | 10 | 6 | 4 | 0 | 9 | 8 | 3 | 0 | 14 | 5 | 1 | 0 | 8 | 7 | 4 | 0 | 2 | 3 |  | Number of micronuclei per 2000 cells (genotoxicity) ([1]; norm 5.0±1.0, listed as “Natural acid”): 5.0 ± 1.0; adaptogenic properties, conclusion in words ([2]; 6-hour immobilization stress, Wistar rats, listed as “natural” acid): evident adaptogens; Eosinophils, 6 h after [2]: 1.5 ± 3%; Lymphocytes, 6 h after [2]: 74 ± 4%; Number of leukocytes in 1 μl of blood, 6 h after [2]: 7100; Segmentated cells, 6 h after [2]: 25 ± 3%; Eosinophils, before [2]: 2 ± 4%; Lymphocytes, before [2]: 75 ± 4%; Number of leukocytes in 1 μl of blood, before [2]: 5900; Segmentated cells, before [2]: 23 ± 2%; cardiotonic properties / dynamics of functional class, conclusion in words ([3]; 100 mg twice per day, 3 months, listed as “natural” acid): high cardiotonic properties; died, 13 day ([4]; female, 5000 mg/kg): 1; radioprotective effect, conclusion in words ([5]; gamma rays 1.3 Gy, 20 mg/kg body wt., 48 h, 20 mg/kg): evident radioprotectors; Number of micronuclei per 2000 cells (radioprotective properties) ([5]; listed as “Natural acid”): 12.0 ± 1.6
